# Measured values published in patent publication US8287893B2, “Bioactive agrichemical compositions and use thereof” (Sciessent LLC, priority 2007, dated 2012).
# Like-named read-outs stand apart in the source and are kept apart here.
# Key:
# E. amylovora 153N = assay: Fire blight on Snow Drift crabapple trees (Example 287); type: in vivo; settings: for cankers, result in words / shoot blight incidence, result in words: day 63
# Experimental: A study of the bioefficacy of the various agrichemical compositions, including bioactive acid solutions and blends thereof with an antibiotic agrichemical, were evaluated to assess their bioefficacy against fire blight on crabapples. The study was conducted on 5 year old Snow Drift crabapple trees, with each of the compositions being applied to ten trees in two-subplots of five trees, four different times: at 100% bloom-day 1, a second application was made on day 4, a third on day 11 and a final treatment on day 19. The trees were inoculated with E. amylovora […] at a concentration of 4×10^6 cells per milliliter on day 1, following drying of the treatment, with the inoculation being repeated on day 13. Evaluation for fire blight was completed on 100 blossoms for each of the subplots on day 12, day 19 and day 27. Additionally, the incidence of shoot infection and the length of […] evaluated on day 63. The test compositions were prepared by forming solutions of the bioactive agents. Two different dilutions of the MI2 bioactive were evaluated; the first employing 94.46 ml/gallon (25 ml/l) of water (5 ppm of each metal) and the second 188.9 ml/gallon (50 ml/l) of water (10 ppm of each metal). […] Finally, copper hydroxide was diluted at a rate of 1 lb/gallon (119.8 g/l). Each of the compositions and blends were spray applied at a rate of 50 gallons (189.3 l) pre acre. The results are presented as the mean of the counts.
# [1] = system: Saccharomycetes Cerevisiae (Fleishmann's Bakers yeast); assay: Yeast growth suppression, turbidity of yeast suspension in growth medium; type: cell-based; set-up: key to turbidity T0 / turbidity T18 / change in turbidity T48 − T0 / turbidity T48 / turbidity T72 / turbidity T96 / change in turbidity T18 − T0 / change in turbidity T72 − T0 / change in turbidity T96 − T0: turbidity in NTU
# Experimental: Saccharomycetes Cerevisiae was selected as a test organism as it is generally accepted in the industry as an indicator or surrogate organism for a wide variety of fungi. In each of these experiments, the same general procedure was followed unless otherwise indicated.
# Experimental Detail: A growth medium was prepared by adding 10 grams of nutrient medium (Difco Sabouraud dextrose broth from BD of Franklin Lakes, N.J., USA) to 300 ml of distilled water. Fleishmann's Bakers yeast was then added to the growth medium while mixing using a magnetic stirrer until a uniform dispersion was obtained having an initial turbidity of between about 50 and 100 NTU as measured using a HF Instruments DRT 100B Turbidity Meter. Once the appropriate dispersion was obtained, 20 ml aliquots were then dispensed, with continued mixing, into 40 ml borosilicate glass vials with Teflon lined caps (VWR International Cat. No. 15900-004). The system/component to be evaluated was then added to the vial and intimately shaken to ensure a good, substantially homogeneous mixture. The turbidity of each mixture was then determined and the vial transferred to an incubator at 30° C. Each vial was periodically removed from the incubator and the mixture in the vials assessed for turbidity: the specific timing for such evaluation was as set forth in the discussion of the experiments and the accompanying tables.
# In each experiment, unless otherwise specified, a 2 ml aqueous solution containing the specified bioactive system or component thereof was added to the 20 ml yeast suspension and mixed thoroughly. Typically the surfactants were added separately in a concentrated solution in water; however, the volume added was negligible: a fraction of an ml. For convenience in understanding efficacy levels, the amounts or concentrations of the various components presented in each of the following tables and experiments are of the diluted material in the test vial: not of the concentrate added to the test vial. Furthermore, the concentrations presented are on the basis of a 20 ml total volume, not the actual 22+ ml volume. Multiplying each of the listed concentrations by 0.9 (or 0.95 with those compositions using 1 ml aqueous solutions) will provide a more accurate assessment of the concentrations of the various components evaluated, i.e., a 5 ppm silver concentration is actually closer to 4.5 ppm. Finally, for those vials to which no bioactive system or component thereof was added (the controls) or which only contained the surfactants, 2 ml of additional growth medium was added to ensure relative equivalent dilutions of the yeast.
# In the tables below, the results are presented as the actual turbidity readings (NTU) with a sub-table presenting the change or delta in NTU values. Given the nature of the system, changes in turbidity are reflective of the relative performance/bioefficacy of the bioactive systems and their components.
# [2] = Table 12, surfactant ~0.05 wt % neat, Metal ppm 0
# [3] = Table 12, surfactants ~0.05 wt %, Metal ppm 2.5 each of Cu, Ag, Zn, ~0.2% citric acid
# [4] = Table 12, surfactants ~0.05 wt %, Metal ppm 5 each of Cu, Ag, Zn, ~0.4% citric acid
compound,measurement,setting,value
[H]/N=C(/N)N[C@H]1[C@H](O)[C@@H](O)[C@H](O[C@@H]2O[C@@H](C)[C@](O)(C=O)[C@H]2O[C@@H]2O[C@@H](CO)[C@H](O)[C@@H](O)[C@@H]2NC)[C@@H](N/C(N)=N\[H])[C@@H]1O [streptomycin],"cankers, result in words",E. amylovora 153N,appeared to prevent canker
same,"shoot blight incidence, result in words",E. amylovora 153N,greatly reduced
[Cu+2].[OH-].[OH-] [copper hydroxide],Shoot Incidence,"E. amylovora 153N; Day 63, rate 5 lbs/a (2.27 kg/a), mean of the counts",1.0
same,"cankers, result in words",E. amylovora 153N,appeared to prevent canker
same,"shoot blight incidence, result in words",E. amylovora 153N,greatly reduced
"O=C([O-])CC(O)(CC(=O)[O-])C(=O)[O-].O=C([O-])CC(O)(CC(=O)[O-])C(=O)[O-].[Zn+2].[Zn+2].[Zn+2] [Example 7, zinc citrate]",Change in Turbidity from T0 (delta NTU) T 96 Hours,[1],1007.2 NTU
same,Change in Turbidity from T0 (delta NTU) T 18 hours,[1],948.2 NTU
same,Change in Turbidity from T0 (delta NTU) T 24 hours,[1],949.2 NTU
same,Change in Turbidity from T0 (delta NTU) Time 1 Hr,[1],20.7 NTU
copper citrate [Example 13],Change in Turbidity from T0 (delta NTU) T 96 Hours,[1],1054.4 NTU
same,Change in Turbidity from T0 (delta NTU) T 18 hours,[1],894.4 NTU
same,Change in Turbidity from T0 (delta NTU) T 24 hours,[1],975.4 NTU
same,Change in Turbidity from T0 (delta NTU) Time 1 Hr,[1],22.4 NTU
CCCCCCCCCCCCOS(=O)(=O)[O-].[Na+],change in turbidity T48 − T0,[1]; [2],610
same,turbidity T0,[1]; [2],48
same,turbidity T18,[1]; [2],495
same,change in turbidity T18 − T0,[1]; [3],2
same,change in turbidity T48 − T0,[1]; [3],0
same,change in turbidity T72 − T0,[1]; [3],0
same,change in turbidity T96 − T0,[1]; [3],−1
same,turbidity T0,[1]; [3],88
same,turbidity T18,[1]; [3],90
same,turbidity T48,[1]; [3],88
same,turbidity T72,[1]; [3],88
same,turbidity T96,[1]; [3],87
same,change in turbidity T18 − T0,[1]; [4],13
same,change in turbidity T48 − T0,[1]; [4],2
same,change in turbidity T72 − T0,[1]; [4],7
same,change in turbidity T96 − T0,[1]; [4],1
"O=C([O-])CC(O)(CC(=O)[O-])C(=O)[O-].[Ag+].[Ag+].[Ag+] [Example 1, silver citrate]",Change in Turbidity from T0 (delta NTU) Time 1 Hr,"[1]; Table 1A, 1 hour",15.1 NTU
same,Change in Turbidity from T0 (delta NTU) T 18 hours,"[1]; Table 1A, 18 hours",845.5 NTU
same,Change in Turbidity from T0 (delta NTU) T 24 hours,"[1]; Table 1A, 24 hours",887.5 NTU
same,Change in Turbidity from T0 (delta NTU) T 96 Hours,"[1]; Table 1A, 96 hours",950.5 NTU
